Results on 24 molecules are retold here after patent US9776962B2, “Aromatic compounds with GPR40 agonistic activity” (TAKEDA PHARMACEUTICAL COMPANY LIMITED, priority 2013, dated 2017).

The target of the test is T1, human GPR40 (Homo sapiens, UniProt O14842).
T1 construct: expressed in transfected cells
T1 sequence (O14842 whole entry): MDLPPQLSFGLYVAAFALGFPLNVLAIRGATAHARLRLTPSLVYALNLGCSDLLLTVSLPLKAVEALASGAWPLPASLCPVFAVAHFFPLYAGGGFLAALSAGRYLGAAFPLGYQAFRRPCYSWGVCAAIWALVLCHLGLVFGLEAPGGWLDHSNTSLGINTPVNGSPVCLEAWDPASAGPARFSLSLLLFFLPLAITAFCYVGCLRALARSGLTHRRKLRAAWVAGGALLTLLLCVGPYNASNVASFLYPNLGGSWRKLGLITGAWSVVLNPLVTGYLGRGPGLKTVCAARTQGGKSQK
The test is described as follows: Evaluation of human GPR40 agonist activity with increase in intracellular Ca2+ concentration as an index (FLIPR). It is filed as cell-based. The conditions noted are these: test compound 1 μM; CHO(dhfr−) cells stably expressing human GPR40; 100% = 10 μM compound of Example 153, 0% = DMSO. The gist of the method: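 CHO(dhfr−) cells stably expressing full-length human GPR40 were loaded with Ca2+ probe for 1 h at room temperature, then given test compound at 1 μM final. Fluorescence was followed on FLIPR, with activity scaled to a reference agonist at 10 μM (100%) and DMSO (0%).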
For the molecule `COc1ccc(C(=O)N(CC(C)(C)OC)c2cc(C)ccn2)c(N2CCC(COc3cc(C(CC(=O)O)C4CC4)ccn3)CC2)c1` (stereo not drawn) [Example 164, 3-cyclopropyl-3-(2-((1-(5-methoxy-2-((2-methoxy-2-methylpropyl)(4-methylpyridin-2-yl)carbamoyl)phenyl)piperidin-4-yl)methoxy)pyridin-4-yl)propanoic acid], the activation at 1 µM was 88%.
Same read-out and setting: then `COc1ccc(C(=O)N(c2ccccn2)C2CC(F)(F)C2)c(N2CCC(COc3cc(C(CC(=O)O)C4CC4)ccn3)CC2)c1` (stereo not drawn) [Example 165, 3-cyclopropyl-3-(2-((1-(2-((3,3-difluorocyclobutyl)(pyridin-2-yl)carbamoyl)-5-methoxyphenyl)piperidin-4-yl)methoxy)pyridin-4-yl)propanoic acid], with 97%.
As for `COc1ccc(C(=O)N(CC(F)(F)F)c2ncccn2)c(N2CCC(COc3cc(C(CC(=O)O)C4CC4)ccn3)CC2)c1` (stereo not drawn) [Example 166, 3-cyclopropyl-3-(2-((1-(5-methoxy-2-(pyrimidin-2-yl(2,2,2-trifluoroethyl)carbamoyl)phenyl)piperidin-4-yl)methoxy)pyridin-4-yl)propanoic acid], the activation at 1 µM stood at 97%.
Same read-out and setting: the value for `COc1ccc(C(=O)N(CC(F)F)c2ncccn2)c(N2CCC(COc3cc(C(CC(=O)O)C4CC4)ccn3)CC2)c1` (stereo not drawn) [Example 167, 3-cyclopropyl-3-(2-((1-(2-((2,2-difluoroethyl)(pyrimidin-2-yl)carbamoyl)-5-methoxyphenyl)piperidin-4-yl)methoxy)pyridin-4-yl)propanoic acid] was 90%; that for `COc1ccc(C(=O)N(CC(F)(F)F)c2nc(C)cc(C)n2)c(N2CCC(COc3cc(C(CC(=O)O)C4CC4)ccn3)CC2)c1` (stereo not drawn) [Example 168, 3-cyclopropyl-3-(2-((1-(2-((4,6-dimethylpyrimidin-2-yl)(2,2,2-trifluoroethyl)carbamoyl)-5-methoxyphenyl)piperidin-4-yl)methoxy)pyridin-4-yl)propanoic acid] was 100%.
Molecule `COc1ccc(C(=O)N(CC(F)(F)F)c2nccc(C)n2)c(N2CCC(COc3cc(C(CC(=O)O)C4CC4)ccn3)CC2)c1` (stereo not drawn) [Example 169, 3-cyclopropyl-3-(2-((1-(5-methoxy-2-((4-methylpyrimidin-2-yl)(2,2,2-trifluoroethyl)carbamoyl)phenyl)piperidin-4-yl)methoxy)pyridin-4-yl)propanoic acid] yielded an activation at 1 µM of 106%.
On the same count and under the same terms, the value for `COc1ccc(C(=O)N(CC(F)(F)C(F)(F)F)c2ncccn2)c(N2CCC(COc3cc(C(CC(=O)O)C4CC4)ccn3)CC2)c1` (stereo not drawn) [Example 170, 3-cyclopropyl-3-(2-((1-(5-methoxy-2-((2,2,3,3,3-pentafluoropropyl)(pyrimidin-2-yl)carbamoyl)phenyl)piperidin-4-yl)methoxy)pyridin-4-yl)propanoic acid] was 104%.
The same measure, in the same setting: then `COc1ccc(C(=O)N(CC(F)(F)C(F)(F)F)c2nccc(C)n2)c(N2CCC(COc3cc(C(CC(=O)O)C4CC4)ccn3)CC2)c1` (stereo not drawn) [Example 171, 3-cyclopropyl-3-(2-((1-(5-methoxy-2-((4-methylpyrimidin-2-yl)(2,2,3,3,3-pentafluoropropyl)carbamoyl)phenyl)piperidin-4-yl)methoxy)pyridin-4-yl)propanoic acid], with 106%; and `COc1ccc(C(=O)N(CC(F)F)c2nccc(C)n2)c(N2CCC(COc3cc(C(CC(=O)O)C4CC4)ccn3)CC2)c1` (stereo not drawn) [Example 172, 3-cyclopropyl-3-(2-((1-(2-((2,2-difluoroethyl)(4-methylpyrimidin-2-yl)carbamoyl)-5-methoxyphenyl)piperidin-4-yl)methoxy)pyridin-4-yl)propanoic acid], with 97%; and `COc1ccc(C(=O)N(CC(C)(C)C)c2nccc(C)n2)c(N2CCC(COc3cc(C(CC(=O)O)C4CC4)ccn3)CC2)c1` (stereo not drawn) [Example 173, 3-cyclopropyl-3-(2-((1-(2-((2,2-dimethylpropyl)(4-methylpyrimidin-2-yl)carbamoyl)-5-methoxyphenyl)piperidin-4-yl)methoxy)pyridin-4-yl)propanoic acid], with 103%.
The same measure, in the same setting: the value for `COc1ccc(C(=O)N(CC(C)(C)C)c2nc(C)cc(C)n2)c(N2CCC(COc3cc(C(CC(=O)O)C4CC4)ccn3)CC2)c1` (stereo not drawn) [Example 174, 3-cyclopropyl-3-(2-((1-(2-((2,2-dimethylpropyl)(4,6-dimethylpyrimidin-2-yl)carbamoyl)-5-methoxyphenyl)piperidin-4-yl)methoxy)pyridin-4-yl)propanoic acid] was 104%.
In turn, `COc1ccc(C(=O)N(CC(F)(F)F)c2cncc(C)c2)c(N2CCC(COc3cc(C(CC(=O)O)C4CC4)ccn3)CC2)c1` (stereo not drawn) [Example 175, 3-cyclopropyl-3-(2-((1-(5-methoxy-2-((5-methylpyridin-3-yl)(2,2,2-trifluoroethyl)carbamoyl)phenyl)piperidin-4-yl)methoxy)pyridin-4-yl)propanoic acid] yielded an activation at 1 µM of 90%.
The same measure, in the same setting: the value for `COc1ccc(C(=O)N(CC(C)(C)C)c2cnccn2)c(N2CCC(COc3cc(C(CC(=O)O)C4CC4)ccn3)CC2)c1` (stereo not drawn) [Example 178, 3-cyclopropyl-3-(2-((1-(2-((2,2-dimethylpropyl)(pyrazin-2-yl)carbamoyl)-5-methoxyphenyl)piperidin-4-yl)methoxy)pyridin-4-yl)propanoic acid] was 103%.
On the same count and under the same terms, then `COc1ccc(C(=O)N(CC(C)(C)C)c2cccnn2)c(N2CCC(COc3cc(C(CC(=O)O)C4CC4)ccn3)CC2)c1` (stereo not drawn) [Example 179, 3-cyclopropyl-3-(2-((1-(2-((2,2-dimethylpropyl)(pyridazin-3-yl)carbamoyl)-5-methoxyphenyl)piperidin-4-yl)methoxy)pyridin-4-yl)propanoic acid], with 84%; and `COc1ccc(C(=O)N(CC(C)(C)C)c2cncc(Cl)n2)c(N2CCC(COc3cc(C(CC(=O)O)C4CC4)ccn3)CC2)c1` (stereo not drawn) [Example 180, 3-(2-((1-(2-((6-chloropyrazin-2-yl)(2,2-dimethylpropyl)carbamoyl)-5-methoxyphenyl)piperidin-4-yl)methoxy)pyridin-4-yl)-3-cyclopropylpropanoic acid], with 105%; and `COc1ccc(C(=O)N(Cc2ccccn2)CC(C)(C)C)c(N2CCC(COc3cc(C(CC(=O)O)C4CC4)ccn3)CC2)c1` (stereo not drawn) [Example 181, 3-cyclopropyl-3-(2-((1-(2-((2,2-dimethylpropyl)(pyridin-2-ylmethyl)carbamoyl)-5-methoxyphenyl)piperidin-4-yl)methoxy)pyridin-4-yl)propanoic acid], with 91%.
The same measure, in the same setting: the value for `COc1ccc(C(=O)N(CC(C)(C)OC)c2ccccc2)c(N2CCC(COc3cc(C(CC(=O)O)C4CC4)ccn3)CC2)c1` (stereo not drawn) [Example 188, 3-cyclopropyl-3-(2-((1-(5-methoxy-2-((2-methoxy-2-methylpropyl)(phenyl)carbamoyl)phenyl)piperidin-4-yl)methoxy)pyridin-4-yl)propanoic acid] was 95%.
As for `COc1ccc(C(=O)N(CC2(F)CC2)c2ccccc2)c(N2CCC(COc3cc(C(CC(=O)O)C4CC4)ccn3)CC2)c1` (stereo not drawn) [Example 189, 3-cyclopropyl-3-(2-((1-(2-(((1-fluorocyclopropyl)methyl)(phenyl)carbamoyl)-5-methoxyphenyl)piperidin-4-yl)methoxy)pyridin-4-yl)propanoic acid], the activation at 1 µM was 89%.
In the case of `COc1ccc(C(=O)N(c2ccccn2)C2CCN(Cc3ccccc3)CC2)c(N2CCC(COc3cc(C(CC(=O)O)C4CC4)ccn3)CC2)c1` (stereo not drawn) [Example 190, 3-(2-((1-(2-((1-benzylpiperidin-4-yl)(pyridin-2-yl)carbamoyl)-5-methoxyphenyl)piperidin-4-yl)methoxy)pyridin-4-yl)-3-cyclopropylpropanoic acid], the “Activity (human GPR40 agonist activity)” value is reported as 66%.
Same read-out and setting: then `COc1ccc(C(=O)N(c2ccccn2)C2CCN(CC(F)(F)F)CC2)c(N2CCC(COc3cc(C(CC(=O)O)C4CC4)ccn3)CC2)c1` (stereo not drawn) [Example 191, 3-cyclopropyl-3-(2-((1-(5-methoxy-2-(pyridin-2-yl(1-(2,2,2-trifluoroethyl)piperidin-4-yl)carbamoyl)phenyl)piperidin-4-yl)methoxy)pyridin-4-yl)propanoic acid], with 86%.
On to `COc1ccc(C(=O)N(CC(C)(C)C)C2CC2)c(N2CCC(COc3cc(C(CC(=O)O)C4CC4)ccn3)CC2)c1` (stereo not drawn) [Example 192, 3-cyclopropyl-3-(2-((1-(2-(cyclopropyl(2,2-dimethylpropyl)carbamoyl)-5-methoxyphenyl)piperidin-4-yl)methoxy)pyridin-4-yl)propanoic acid], for which the activation at 1 µM worked out at 90%.
With `COc1ccc(C(=O)NC2CCN(CC(F)(F)F)CC2)c(N2CCC(COc3cc(C(CC(=O)O)C4CC4)ccn3)CC2)c1` (stereo not drawn) [Example 193, 3-cyclopropyl-3-(2-((1-(5-methoxy-2-((1-(2,2,2-trifluoroethyl)piperidin-4-yl)carbamoyl)phenyl)piperidin-4-yl)methoxy)pyridin-4-yl)propanoic acid], the activation at 1 µM is 39%.
Still for that read-out and setting: the value for `COc1ccc(C(=O)N(C)C2CCN(CC(F)(F)F)CC2)c(N2CCC(COc3cc(C(CC(=O)O)C4CC4)ccn3)CC2)c1` (stereo not drawn) [Example 194, 3-cyclopropyl-3-(2-((1-(5-methoxy-2-(methyl(1-(2,2,2-trifluoroethyl)piperidin-4-yl)carbamoyl)phenyl)piperidin-4-yl)methoxy)pyridin-4-yl)propanoic acid] was 77%.
The same measure, in the same setting: the value for `COc1ccc(C(=O)N(CC2CCCCC2)c2ccccn2)c(N2CCC(COc3cc(C(CC(=O)O)C4CC4)ccn3)CC2)c1` (stereo not drawn) [Example 195, 3-(2-((1-(2-((cyclohexylmethyl)(pyridin-2-yl)carbamoyl)-5-methoxyphenyl)piperidin-4-yl)methoxy)pyridin-4-yl)-3-cyclopropylpropanoic acid] was 98%.
